Experimental data published in patent US20250228873A1, “C25 R AND S ISOMERS OF AMINOSTEROLS AND METHODS OF MAKING AND USING THE SAME” (Enterin, Inc., priority 2022, published 2025).
Read-outs that look alike come from different tables or passages of the source.

Assays:
PTPN6/SHP1 = target: T1, PTPN6/SHP1 (Homo sapiens, UniProt P29350); assay: Phosphatase panel, DiFMUP fluorescence assay; type: biochemical
T1 construct: purchased Recation Biology Inc

PTPRC/CD45 = target: T2, PTPRC/CD45 (Homo sapiens, UniProt P08575); assay: Phosphatase panel, DiFMUP fluorescence assay; type: biochemical
T2 construct: purchased Recation Biology Inc
T2 sequence (P08575 26-1306): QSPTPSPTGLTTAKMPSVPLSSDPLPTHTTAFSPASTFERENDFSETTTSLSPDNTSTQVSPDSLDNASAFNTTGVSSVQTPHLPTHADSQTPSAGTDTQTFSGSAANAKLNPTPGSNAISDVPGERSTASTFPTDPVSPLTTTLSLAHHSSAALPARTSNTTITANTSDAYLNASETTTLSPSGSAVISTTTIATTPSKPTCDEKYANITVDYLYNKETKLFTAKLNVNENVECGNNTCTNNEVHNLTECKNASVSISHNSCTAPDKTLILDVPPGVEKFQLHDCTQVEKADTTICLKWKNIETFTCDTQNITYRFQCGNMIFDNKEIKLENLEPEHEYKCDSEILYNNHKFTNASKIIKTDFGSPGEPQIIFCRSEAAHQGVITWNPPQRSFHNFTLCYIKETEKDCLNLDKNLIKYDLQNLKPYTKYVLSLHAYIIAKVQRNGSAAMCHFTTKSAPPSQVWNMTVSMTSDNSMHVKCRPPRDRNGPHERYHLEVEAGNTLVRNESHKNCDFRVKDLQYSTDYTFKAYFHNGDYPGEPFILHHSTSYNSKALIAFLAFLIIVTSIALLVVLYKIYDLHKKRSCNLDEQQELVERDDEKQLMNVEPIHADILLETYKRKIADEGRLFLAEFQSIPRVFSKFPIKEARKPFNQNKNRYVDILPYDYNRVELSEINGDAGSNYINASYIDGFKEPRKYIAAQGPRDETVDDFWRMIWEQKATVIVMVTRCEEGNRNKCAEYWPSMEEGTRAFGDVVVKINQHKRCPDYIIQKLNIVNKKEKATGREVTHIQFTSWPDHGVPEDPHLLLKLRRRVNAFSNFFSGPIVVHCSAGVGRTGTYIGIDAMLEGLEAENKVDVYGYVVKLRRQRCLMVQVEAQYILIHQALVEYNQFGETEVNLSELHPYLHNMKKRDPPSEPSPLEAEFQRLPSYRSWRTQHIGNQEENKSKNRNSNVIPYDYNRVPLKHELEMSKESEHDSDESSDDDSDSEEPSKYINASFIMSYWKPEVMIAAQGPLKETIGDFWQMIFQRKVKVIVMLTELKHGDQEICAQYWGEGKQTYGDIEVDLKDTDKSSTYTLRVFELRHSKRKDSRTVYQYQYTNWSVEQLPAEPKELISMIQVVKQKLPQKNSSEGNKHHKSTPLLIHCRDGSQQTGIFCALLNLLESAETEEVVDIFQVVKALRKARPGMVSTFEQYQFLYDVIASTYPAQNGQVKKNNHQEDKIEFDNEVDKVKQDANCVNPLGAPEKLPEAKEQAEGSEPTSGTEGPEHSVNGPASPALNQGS

PTPN2/TC-PTP = target: T3, PTPN2/TC-PTP (Homo sapiens, UniProt P17706); assay: Phosphatase panel, DiFMUP fluorescence assay; type: biochemical
T3 construct: purchased Recation Biology Inc
T3 sequence (P17706 1-415): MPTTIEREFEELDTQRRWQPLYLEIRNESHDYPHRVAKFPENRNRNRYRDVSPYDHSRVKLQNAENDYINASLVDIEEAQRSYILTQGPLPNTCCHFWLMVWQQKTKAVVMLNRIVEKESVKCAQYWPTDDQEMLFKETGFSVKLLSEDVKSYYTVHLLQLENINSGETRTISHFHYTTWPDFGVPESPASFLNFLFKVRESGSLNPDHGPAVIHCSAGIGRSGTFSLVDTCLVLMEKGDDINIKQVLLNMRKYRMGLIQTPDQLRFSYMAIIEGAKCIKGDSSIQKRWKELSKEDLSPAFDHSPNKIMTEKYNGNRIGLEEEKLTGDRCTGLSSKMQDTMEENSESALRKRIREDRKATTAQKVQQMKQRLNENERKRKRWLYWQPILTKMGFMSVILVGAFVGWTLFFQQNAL

PTPN12/PTP-PEST = target: T4, PTPN12/PTP-PEST (Homo sapiens, UniProt Q05209); assay: Phosphatase panel, DiFMUP fluorescence assay; type: biochemical
T4 construct: purchased Recation Biology Inc
T4 sequence (Q05209 1-780): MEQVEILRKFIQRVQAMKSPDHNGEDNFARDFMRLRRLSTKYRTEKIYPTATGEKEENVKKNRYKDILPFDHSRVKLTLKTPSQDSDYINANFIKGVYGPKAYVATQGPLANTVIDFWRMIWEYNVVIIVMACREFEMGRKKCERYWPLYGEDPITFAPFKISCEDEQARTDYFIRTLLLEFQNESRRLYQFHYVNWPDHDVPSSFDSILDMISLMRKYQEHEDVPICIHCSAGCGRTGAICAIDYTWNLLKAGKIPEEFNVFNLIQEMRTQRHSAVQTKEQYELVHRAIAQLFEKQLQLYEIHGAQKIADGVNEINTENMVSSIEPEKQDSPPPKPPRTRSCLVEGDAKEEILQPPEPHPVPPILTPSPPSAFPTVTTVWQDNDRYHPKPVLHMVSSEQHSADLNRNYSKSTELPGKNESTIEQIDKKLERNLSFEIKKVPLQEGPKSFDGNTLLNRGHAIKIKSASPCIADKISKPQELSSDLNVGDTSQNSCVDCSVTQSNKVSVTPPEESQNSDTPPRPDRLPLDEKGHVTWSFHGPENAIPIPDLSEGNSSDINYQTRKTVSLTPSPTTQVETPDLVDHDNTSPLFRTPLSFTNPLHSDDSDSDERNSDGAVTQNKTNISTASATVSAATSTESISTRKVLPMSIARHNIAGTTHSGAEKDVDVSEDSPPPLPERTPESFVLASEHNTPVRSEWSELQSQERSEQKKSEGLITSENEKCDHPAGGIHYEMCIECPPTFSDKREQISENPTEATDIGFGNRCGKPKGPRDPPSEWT

[1] = target: Tyrosine-protein phosphatase non-receptor type 11 (Homo sapiens, UniProt Q06124); assay: Phosphatase panel, DiFMUP fluorescence assay; type: biochemical
PTPN1/PTP1B = target: T5, PTPN1/PTP1B (Homo sapiens, UniProt P18031); assay: PTP1B inhibition, fluorescence time-course, 10-dose IC50 (Example 2); type: biochemical
T5 construct: The enzyme was the human truncated form (1-321), recombinantly produced in Escherichia coli; host or cells: Escherichia coli
T5 sequence (P18031 1-321): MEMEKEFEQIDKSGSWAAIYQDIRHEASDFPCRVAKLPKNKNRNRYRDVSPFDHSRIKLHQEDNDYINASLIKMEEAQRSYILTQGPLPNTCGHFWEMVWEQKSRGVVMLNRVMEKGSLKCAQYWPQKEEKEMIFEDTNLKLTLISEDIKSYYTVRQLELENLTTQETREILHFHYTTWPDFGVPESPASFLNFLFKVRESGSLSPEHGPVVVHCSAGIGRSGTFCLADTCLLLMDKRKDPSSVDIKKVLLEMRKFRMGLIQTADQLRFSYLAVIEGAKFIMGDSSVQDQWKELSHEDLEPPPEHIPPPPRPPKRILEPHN

[2] = target: T6, PP2A Alpha/PP2R1A Complex (Homo sapiens, UniProt P67775); assay: Phosphatase panel, DiFMUP fluorescence assay; type: biochemical
T6 construct: purchased Recation Biology Inc

stomach tissues = assay: Stomach RNA-sequencing, ENT-02 (MSI-1436) treatment and congruence with ENT-03 (Example 10); type: in vivo, mice; conditions: stomach RNA-seq
Method: Samples of stomach tissues from the mice were analysed by RNA-sequencing on an Illumina platform.
To achieve these aims, data were subject to a quality control evaluation, differential expression and functional enrichment analyses, as well as a congruence analysis.
[…] At this threshold, differentially expressed genes were identified in all contrasts.
As mentioned previously, for statistical robustness, only those with an adjusted p-value <0.05 should be considered. […]
The amount of overlap is represented in FIGS. 28A-28D. For each comparison, the value in the plot represents the number of intersecting selected genes and the color represents the Jaccard index (the intersection over the union) for the two contrasts under consideration.
Scatter plots, upset plots, venn diagrams, hypergeometric tests and Spearman rank correlation tests were employed to assess the level of overlap as shown in FIGS. 15-27.

T6 sequence (P67775 whole entry): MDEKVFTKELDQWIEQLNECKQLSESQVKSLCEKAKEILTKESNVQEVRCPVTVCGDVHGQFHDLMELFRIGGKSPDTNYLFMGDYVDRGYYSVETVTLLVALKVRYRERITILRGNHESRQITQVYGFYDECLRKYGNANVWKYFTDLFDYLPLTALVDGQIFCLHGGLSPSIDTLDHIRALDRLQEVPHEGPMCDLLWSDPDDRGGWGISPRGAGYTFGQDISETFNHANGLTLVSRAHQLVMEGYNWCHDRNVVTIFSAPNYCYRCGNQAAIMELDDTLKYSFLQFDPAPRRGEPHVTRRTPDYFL
T6 sequence (P30153 whole entry partner): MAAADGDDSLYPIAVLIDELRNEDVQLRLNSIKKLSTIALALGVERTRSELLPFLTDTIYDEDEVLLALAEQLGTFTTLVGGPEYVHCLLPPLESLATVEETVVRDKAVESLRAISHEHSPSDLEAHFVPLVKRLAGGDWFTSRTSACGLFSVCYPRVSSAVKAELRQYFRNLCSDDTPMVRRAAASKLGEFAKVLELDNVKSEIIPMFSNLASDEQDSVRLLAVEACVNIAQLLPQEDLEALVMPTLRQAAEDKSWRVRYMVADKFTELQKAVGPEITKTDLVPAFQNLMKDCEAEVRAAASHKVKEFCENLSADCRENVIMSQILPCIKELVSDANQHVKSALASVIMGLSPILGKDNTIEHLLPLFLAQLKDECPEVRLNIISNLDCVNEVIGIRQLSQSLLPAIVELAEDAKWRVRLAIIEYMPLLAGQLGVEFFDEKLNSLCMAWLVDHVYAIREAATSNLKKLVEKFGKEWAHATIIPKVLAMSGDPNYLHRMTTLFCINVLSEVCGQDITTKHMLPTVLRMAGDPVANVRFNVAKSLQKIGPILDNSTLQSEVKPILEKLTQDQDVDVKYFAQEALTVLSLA
T1 sequence (P29350 whole entry): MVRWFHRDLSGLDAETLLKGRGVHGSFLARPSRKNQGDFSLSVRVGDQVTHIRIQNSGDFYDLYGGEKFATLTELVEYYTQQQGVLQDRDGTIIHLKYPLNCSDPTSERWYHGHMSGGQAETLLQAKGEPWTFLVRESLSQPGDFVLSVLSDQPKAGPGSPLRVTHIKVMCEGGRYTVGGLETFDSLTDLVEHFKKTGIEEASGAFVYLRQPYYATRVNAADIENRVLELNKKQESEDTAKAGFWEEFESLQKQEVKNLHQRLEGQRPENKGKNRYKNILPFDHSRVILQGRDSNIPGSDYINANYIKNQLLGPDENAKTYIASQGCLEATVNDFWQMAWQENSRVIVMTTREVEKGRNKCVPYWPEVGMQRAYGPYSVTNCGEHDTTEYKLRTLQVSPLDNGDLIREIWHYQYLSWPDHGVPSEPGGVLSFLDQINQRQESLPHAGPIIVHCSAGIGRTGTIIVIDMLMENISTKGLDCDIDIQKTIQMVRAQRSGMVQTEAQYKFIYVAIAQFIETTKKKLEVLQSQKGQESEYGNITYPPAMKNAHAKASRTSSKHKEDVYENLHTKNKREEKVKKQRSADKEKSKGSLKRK
Chain of Tyrosine-protein phosphatase non-receptor type 11 (Q06124 247-517): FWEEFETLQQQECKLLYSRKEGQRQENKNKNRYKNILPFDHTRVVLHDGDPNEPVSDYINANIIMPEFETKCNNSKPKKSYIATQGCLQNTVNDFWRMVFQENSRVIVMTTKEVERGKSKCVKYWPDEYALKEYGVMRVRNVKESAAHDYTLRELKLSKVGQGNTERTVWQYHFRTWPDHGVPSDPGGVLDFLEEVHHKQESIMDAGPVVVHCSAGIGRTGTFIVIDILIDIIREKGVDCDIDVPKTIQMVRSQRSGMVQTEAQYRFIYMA

## CCc1oc2cc(S(=O)(=O)Nc3ccc(S(=O)(=O)Nc4nccs4)cc3)ccc2c1C(=O)c1cc(Br)c(O)c(Br)c1 [PTP1B Inhibitor, 3-(3,5-Dibromo-4-hydroxy-benzoyl)-2-ethyl-benzofuran-6-sulfonicacid-(4-(thiazol-2-ylsulfamyl)-phenyl)-amide, reference compound]
PTPN6/SHP1; Table 5B, read-out: Compound IC50 (M) PTPN6/SHP1
  IC50: 5.75e-06 M
PTPN6/SHP1; Table 18A, read-out: inhibitory activity PTPN6/SHP1
  IC50: 3.47e-06 M
PTPN6/SHP1; Table 19A, read-out: inhibitory activity PTPN6/SHP1
  IC50: 3.67e-06 M
PTPRC/CD45; Table 5B, read-out: Compound IC50 (M) PTPRC/CD45
  IC50: 5.7e-05 M
PTPRC/CD45; Table 18A, read-out: inhibitory activity PTPRC/CD45
  IC50: 2.8e-05 M
PTPRC/CD45; Table 19A, read-out: inhibitory activity PTPRC/CD45
  IC50: 2.66e-05 M
PTPN2/TC-PTP; Table 5C, read-out: Compound IC50 (M) PTPN2/TC-PTP
  IC50: 1.34e-05 M
PTPN2/TC-PTP; Table 18B, read-out: inhibitory activity PTPN2/TC-PTP
  IC50: 7.53e-06 M
PTPN2/TC-PTP; Table 19B, read-out: inhibitory activity PTPN2/TC-PTP
  IC50: 5.86e-06 M
PTPN12/PTP-PEST; Table 5C, read-out: Compound IC50 (M) PTPN12/PTP-PEST
  IC50: 2.99e-05 M
PTPN12/PTP-PEST; Table 18B, read-out: inhibitory activity PTPN12/PTP-PEST
  IC50: 2.16e-06 M
PTPN12/PTP-PEST; Table 19B, read-out: inhibitory activity PTPN12/PTP-PEST
  IC50: 1.21e-06 M
[1]
  IC50: 1.82 µM

## [2H]C([2H])([2H])C([2H])(C(CC[C@@H](C)[C@H]1CCC2C3C(CC[C@@]21C)[C@@]1(C)CC[C@H](NCCCNCCCCNCCCN)C[C@@H]1C[C@H]3O)OS(=O)(=O)O)C([2H])([2H])[2H] (some centres unmarked) [Compound D7-1436]
PTPN1/PTP1B; Conc 1.00E−04 M
  Slope (signal/min): −161 signal/min
PTPN1/PTP1B; Conc 1.11E−05 M
  Slope (signal/min): −319 signal/min
PTPN1/PTP1B; Conc 1.23E−06 M
  Slope (signal/min): 34760 signal/min
PTPN1/PTP1B; Conc 1.37E−07 M
  Slope (signal/min): 40150 signal/min
PTPN1/PTP1B; Conc 1.52E−08 M
  Slope (signal/min): 43819 signal/min
PTPN1/PTP1B; Conc 3.33E−05 M
  Slope (signal/min): −362 signal/min
PTPN1/PTP1B; Conc 3.70E−06 M
  Slope (signal/min): 8429 signal/min
PTPN1/PTP1B; Conc 4.12E−07 M
  Slope (signal/min): 41755 signal/min
PTPN1/PTP1B; Conc 4.57E−08 M
  Slope (signal/min): 43697 signal/min
PTPN1/PTP1B; Conc 5.08E−09 M
  Slope (signal/min): 44655 signal/min
PTPN1/PTP1B; Table 5A
  HILLSLOPE: −2.50

## CC1(C(=O)O)C2CCC(O2)C1(C)C(=O)O (centres unmarked) [Canthardic Acid, Cantharidic acid, reference compound]
[2]; Compound IC50 (M) PP2A Alpha/PP2R1A Complex, Table 5B
  IC50: 1.7e-08 M
[2]; inhibitory activity PP2A Alpha/PP2R1A Complex, Table 18A
  IC50: 2.78e-08 M
[2]; inhibitory activity PP2A Alpha/PP2R1A Complex, Table 19A
  IC50: 3.01e-08 M

## CC(C)[C@@H](CC[C@@H](C)[C@H]1CC[C@H]2[C@@H]3[C@H](O)C[C@H]4C[C@@H](NCCCNCCCCN)CC[C@]4(C)[C@H]3CC[C@]12C)OS(=O)(=O)O (single isomer, unassigned) [Ent-01, Squalamine]
Stomach tissues; old vs young mice, both treated, threshold 4x
  number of significant features, down-regulated, fold change threshold 4x: 69
Stomach tissues; old vs young mice, both treated, threshold 8x
  number of significant features, down-regulated, fold change threshold 8x: 36
Stomach tissues; old vs young mice, both treated, threshold 16x
  number of significant features, down-regulated, fold change threshold 16x: 27
Stomach tissues; treatment vs control, old mice, threshold 4x
  number of significant features, down-regulated, fold change threshold 4x: 66
Stomach tissues; treatment vs control, old mice, threshold 8x
  number of significant features, down-regulated, fold change threshold 8x: 25
Stomach tissues; treatment vs control, old mice, threshold 16x
  number of significant features, down-regulated, fold change threshold 16x: 11
Stomach tissues; treatment vs control, young mice, threshold 8x
  number of significant features, down-regulated, fold change threshold 8x: 47
Stomach tissues; treatment vs control, young mice, threshold 16x
  number of significant features, down-regulated, fold change threshold 16x: 12
Stomach tissues; treatment vs control, young mice, up-regulated, threshold 4x
  number of significant features, up-regulated, fold change threshold 4x: 58
Stomach tissues; treatment vs control, young mice, up-regulated, threshold 8x
  number of significant features, up-regulated, fold change threshold 8x: 38
Stomach tissues; treatment vs control, young mice, up-regulated, threshold 16x
  number of significant features, up-regulated, fold change threshold 16x: 28
